Measurements as given in publication PMC11881136, “Development of a Novel ^18F-Labeled Radioligand for Imaging Phosphodiesterase 7 with Positron Emission Tomography” (Molecular Pharmaceutics, 2025).
Like-named read-outs stand apart in the source and are kept apart here.

How the values were obtained:
PDE7 [1] = test: Phosphodiesterase 7 inhibition assay (Eurofins); format: biochemical; settings: for Inhibiton at 0.5 nM: PDE7, 0.5 nM
Procedure: (§1) The inhibition assay of phosphodiesterase 7 with compounds 1–7 was performed by Eurofins. The inhibition assay of other phosphodiesterases with compound 7 was performed by Reaction Biology Corporation at a concentration of 3 μM.

PDE7 [2] = target: PDE7; parameters: method as in PMID 32246980; settings: read-out: binding affinity KD toward PDE7; cited from earlier work
[3] = parameters: method as in PMID 32246980; settings: cited from earlier work
other PDEs subfamilies = test: Inhibition assay of other phosphodiesterases (Reaction Biology Corporation); format: biochemical; settings: 3 μM; other than PDE4
Procedure: as §1

PDE4 = test: Inhibition assay of other phosphodiesterases: PDE4; format: biochemical; settings: 3 μM
Procedure: as §1

PDE4B = target: T1, PDE4B (Homo sapiens, UniProt Q07343); test: Inhibition assay of other phosphodiesterases: PDE4B; format: biochemical
T1 construct: purchased Reaction Biology Corporation
T1 sequence (Q07343 whole entry, species assumed): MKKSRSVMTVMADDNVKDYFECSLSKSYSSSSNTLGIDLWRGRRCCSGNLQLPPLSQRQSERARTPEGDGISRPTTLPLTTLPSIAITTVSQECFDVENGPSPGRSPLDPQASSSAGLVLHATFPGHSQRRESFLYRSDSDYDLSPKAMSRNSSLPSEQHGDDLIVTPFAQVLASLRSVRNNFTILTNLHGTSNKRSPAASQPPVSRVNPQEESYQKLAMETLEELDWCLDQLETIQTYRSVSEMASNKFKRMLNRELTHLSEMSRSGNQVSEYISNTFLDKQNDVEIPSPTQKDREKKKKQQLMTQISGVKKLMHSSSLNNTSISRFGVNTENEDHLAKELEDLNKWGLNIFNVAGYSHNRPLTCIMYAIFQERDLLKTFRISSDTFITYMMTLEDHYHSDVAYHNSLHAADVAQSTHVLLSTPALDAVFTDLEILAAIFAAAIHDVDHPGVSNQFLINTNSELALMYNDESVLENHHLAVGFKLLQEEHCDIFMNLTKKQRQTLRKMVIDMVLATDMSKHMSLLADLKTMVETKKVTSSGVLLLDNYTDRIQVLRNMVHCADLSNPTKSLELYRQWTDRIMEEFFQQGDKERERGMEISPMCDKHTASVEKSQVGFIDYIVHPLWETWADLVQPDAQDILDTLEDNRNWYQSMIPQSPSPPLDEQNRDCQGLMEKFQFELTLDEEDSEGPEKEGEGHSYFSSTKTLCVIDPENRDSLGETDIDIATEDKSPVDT
Procedure: as §1

[4] = Log D, shake flask method; format: physicochemical; settings: n-octanol/PBS
Procedure: PBS buffer (0.01 M) and n-octanol were presaturated with each other overnight before the measurement. The PDE7 ligand [^18F]7, PBS (0.01 M, 5 mL), and n-octanol (5 mL) were combined and vortexed for 3 min, and then centrifuged (∼14 000 rpm, 5 min). The PBS fraction and n-octanol fraction were weighted and counted by γ counter. The log D was calculated as log[(radioactivityn-octanol/weightn-octanol)/(radioactivityPBS/weightPBS)].

66 major CNS targets = test: Off-target binding profile against 66 major CNS targets; settings: 10 μM; except 5-HT2B and Sigma1
5-HT2B = 5-HT2B (Homo sapiens, UniProt P41595); test: Off-target binding: 5-HT2B
5-HT2B, sequence (P41595 whole entry, species assumed): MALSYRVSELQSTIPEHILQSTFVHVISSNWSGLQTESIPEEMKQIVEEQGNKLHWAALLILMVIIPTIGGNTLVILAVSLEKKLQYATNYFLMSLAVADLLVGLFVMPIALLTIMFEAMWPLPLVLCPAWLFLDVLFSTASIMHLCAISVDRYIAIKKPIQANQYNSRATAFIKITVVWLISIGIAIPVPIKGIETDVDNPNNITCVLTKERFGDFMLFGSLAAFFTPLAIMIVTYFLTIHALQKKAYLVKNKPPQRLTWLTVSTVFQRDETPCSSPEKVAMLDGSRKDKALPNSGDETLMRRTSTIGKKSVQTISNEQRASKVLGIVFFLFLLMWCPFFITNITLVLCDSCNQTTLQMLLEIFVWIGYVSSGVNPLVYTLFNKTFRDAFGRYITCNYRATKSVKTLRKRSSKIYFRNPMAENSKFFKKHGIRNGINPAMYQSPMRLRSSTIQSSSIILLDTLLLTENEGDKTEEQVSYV

Sigma1 = Sigma1 (Homo sapiens, UniProt Q99720); test: Off-target binding: Sigma1
Sigma1, sequence (Q99720 whole entry): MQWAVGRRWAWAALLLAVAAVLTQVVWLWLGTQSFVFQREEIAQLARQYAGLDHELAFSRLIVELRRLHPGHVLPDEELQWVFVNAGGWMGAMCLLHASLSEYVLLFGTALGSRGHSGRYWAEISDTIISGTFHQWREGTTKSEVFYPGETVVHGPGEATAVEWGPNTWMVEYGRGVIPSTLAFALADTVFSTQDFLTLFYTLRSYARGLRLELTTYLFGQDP

PDE7 [5] = test: In vitro autoradiography in rat brain sections; format: binding; settings: blocker 10 μM
Procedure: Autoradiography studies were conducted as previously reported.[24],[25] In brief, SD rat brain sections ([…]) were preincubated with buffer (Tris-HCl, 50 mM) at ambient temperature for 20 min and then incubated with [^18F]7 (1 μCi/mL) for 30 min. After that, the brain sections were washed with cold buffer and water, dried with cold air, and exposed to the phosphor plate (12 h). In blocking studies, brain sections were incubated with [^18F]7 in the presence of compound 7 (10 μM) or P7–2104 (10 μM).

PDE7 [6] = test: PET imaging in rat brains; format: in vivo
Procedure: PET imaging was carried out as previously reported.[26] [^18F]7 (30–40 uCi) was administered to SD rats via the tail vein, and dynamic scans were conducted with a G8 scanner (Sofie) for 1 h (n = 4). In blocking studies, elacridar (5 mg/kg) was administered intravenously at 20 min before the administration of [^18F]7, and P7–2104 or 7 (3 mg/kg) was administered intravenously at 10 min before the administration of [^18F]7 (n = 3). PET data were analyzed with PMOD (PMOD Technologies LLC, Switzerland).

[7] = In vitro stability in formulation solution (saline); format: physicochemical; settings: up to 60 or 120 min
[8] = In vitro stability in mouse serum; format: in vitro ADME; settings: up to 60 or 120 min
[9] = In vitro stability in rat serum; format: in vitro ADME; settings: up to 60 or 120 min
[10] = In vitro stability in NHP serum; format: in vitro ADME; settings: up to 60 or 120 min
[11] = In vitro stability in human serum; format: in vitro ADME; settings: up to 60 or 120 min
[12] = Ex vivo whole-body biodistribution in CD-1 mice; parameters: species or system mouse
Procedure: Whole-Body biodistribution was carried out as previously reported.[27],[28] [^18F]7 (10 μCi/100 μL) was administered intravenously to CD-1 mice, which were sacrificed at 5, 15, 30, and 60 min after administration of [^18F]7 (n = 3). Tissues of interest were collected, weighted, and measured by a γ counter.

[13] = Radiometabolic analysis in rats; format: in vivo; settings: rat, 30 min post administration
Procedure: [^18F]7 was injected via the tail vein of SD rats and then euthanized 30 min after administration of [^18F]7 (0.1 mCi per rat, n = 2). The brain was collected, homogenized, and cold acetonitrile (0.2 mL) was added then centrifuged (14 000g, 5 min) at 4 °C. This step was repeated until there was no obvious precipitation formed. Then the supernatant was injected into a radioHPLC with unlabeled 7 as the internal standard. Both [^18F]7 and its ^18F-metabolites were collected by HPLC and then measured by γ counter. The same procedure was conducted for plasma.

PDE7 [14] = test system: PDE7; parameters: method as in PMID 26330158; settings: read-out: PDE7 inhibitory potency IC50; cited from earlier work

CN(C)C(=O)c1cccc(F)c1Oc1ccc(Cl)c2c1C1(CCCCC1)OC(=O)N2 [Compound 1, 2-((8-Chloro-2-oxo-1,2-dihydrospiro[benzo[d][1,3]oxazine-4,1′-cyclohexan]-5-yl)oxy)-3-fluoro-N,N-dimethylbenzamide]
IC50 (PDE7 [1]): 0.41 nM
Inhibiton at 0.5 nM (PDE7 [1]): 50%
Kd (PDE7 [2]): 0.8 nM
brain uptake [3]: 0.25 %ID/g

CN(C)C(=O)c1ccc(F)cc1Oc1ccc(Cl)c2c1C1(CCCCC1)OC(=O)N2 [Compound 2, 2-((8-Chloro-2-oxo-1,2-dihydrospiro[benzo[d][1,3]oxazine-4,1′-cyclohexan]-5-yl)oxy)-4-fluoro-N,N-dimethylbenzamide]
Inhibiton at 0.5 nM (PDE7 [1]): 6%

CN(C)C(=O)c1cc(F)ccc1Oc1ccc(Cl)c2c1C1(CCCCC1)OC(=O)N2 [Compound 3, 2-((8-Chloro-2-oxo-1,2-dihydrospiro[benzo[d][1,3]oxazine-4,1′-cyclohexan]-5-yl)oxy)-5-fluoro-N,N-dimethylbenzamide]
Inhibiton at 0.5 nM (PDE7 [1]): -17%

CN(C)C(=O)c1c(F)cccc1Oc1ccc(Cl)c2c1C1(CCCCC1)OC(=O)N2 [Compound 4, 2-((8-Chloro-2-oxo-1,2-dihydrospiro[benzo[d][1,3]oxazine-4,1′-cyclohexan]-5-yl)oxy)-6-fluoro-N,N-dimethylbenzamide]
Inhibiton at 0.5 nM (PDE7 [1]): -10%

O=C1Nc2c(Cl)ccc(Oc3c(F)cccc3C(=O)N3CCC3)c2C2(CCCCC2)O1 [Compound 5, 5-(2-(Azetidine-1-carbonyl)-6-fluorophenoxy)-8-chlorospiro[benzo[d][1,3]oxazine-4,1′-cyclohexan]-2(1H)-one]
IC50 (PDE7 [1]): 0.04 nM
Inhibiton at 0.5 nM (PDE7 [1]): 68%

CN(C(=O)c1cccc(F)c1Oc1ccc(Cl)c2c1C1(CCCCC1)OC(=O)N2)C1CC1 [Compound 6, 2-((8-Chloro-2-oxo-1,2-dihydrospiro[benzo[d][1,3]oxazine-4,1′-cyclohexan]-5-yl)oxy)-N-cyclopropyl-3-fluoro-N-methylbenzamide]
Inhibiton at 0.5 nM (PDE7 [1]): -13%

O=C1Nc2c(Cl)ccc(Oc3c(F)cccc3C(=O)N3CC(F)C3)c2C2(CCCCC2)O1 [Compound 7, 8-Chloro-5-(2-fluoro-6-(3-fluoroazetidine-1-carbonyl)phenoxy)spiro[benzo[d][1,3]oxazine-4,1′-cyclohexan]-2(1H)-one]
IC50 (PDE7 [1]): 0.18 nM
selectivity for PDE7 over other PDE subfamilies (PDE7 [1]): > 400 fold
Inhibiton at 0.5 nM (PDE7 [1]): 51%
inhibition of other PDEs subfamilies (other PDEs subfamilies): < 50 % inhibition
activity against PDE4 (PDE4): moderately active
IC50 (PDE4B): 77.3 nM
PDE4B inhibition (PDE4B; 3 μM): 92 % inhibition
logD [4]: 3.27
off-target binding (>50% inhibition) against 66 major CNS targets (66 major CNS targets): No significant off-target binding
Ki (5-HT2B): 3360 nM
Ki (Sigma1): 7410 nM
reduction of [18F]7 radioactivity signal in striatum (autoradiography blocking) (PDE7 [5]): 56%
reduction of [18F]7 SUVpeak in striatum (PET blocking) (PDE7 [6]; blocker 3 mg/kg i.v. with elacridar 5 mg/kg, SD rats): 51%

O=C1Nc2c(Cl)ccc(Oc3c(F)cccc3C(=O)N3CC([18F])C3)c2C2(CCCCC2)O1 [[^18F]7]
IC50 (PDE7 [1]): 0.18 nM
selectivity for PDE7 over other PDE subfamilies (PDE7 [1]): > 400 fold
in vitro stability in saline [7]: no obvious decomposition or metabolite was observed
in vitro stability in mouse serum [8]: no obvious decomposition or metabolite was observed
in vitro stability in rat serum [9]: no obvious decomposition or metabolite was observed
in vitro stability in NHP serum [10]: no obvious decomposition or metabolite was observed
in vitro stability in human serum [11]: no obvious decomposition or metabolite was observed
SUVpeak in striatum after elacridar (PDE7 [6]; SD rats, elacridar 5 mg/kg i.v. 20 min before tracer): 2.8
SUVpeak in striatum, baseline (PDE7 [6]; SD rats, i.v., baseline): 0.35
increase of SUVpeak in striatum by elacridar (PDE7 [6]; elacridar 5 mg/kg vs baseline): 700%
bone uptake at 5 min ([12]; 5 min): 1.6 %ID/g
bone uptake at 60 min ([12]; 60 min): 0.3 %ID/g
initial radioactivity in liver, small intestine, kidney, pancreas, lung, and heart ([12]; i.v., initially): > 5 %ID/g
brain uptake (biodistribution) ([12]; initially): low uptake
intact parent fraction in brain [13]: 92%
intact parent fraction in plasma [13]: 67%

O=C1Nc2c(Cl)ccc(OCC[18F])c2C2(CCCCC2)N1 [[^18F]MICA-003]
IC50 (PDE7 [14]): 17 nM
